Assay results taken from patent publication US20050037033A1, “Microbicidal compositions and methods and use” (priority 2003, published 2005).

Key:
Peptostrep tetradius = test: Anaerobe inhibition assay; format: cell-based; conditions: 1 strain, read-out: Minimum Inhibitory Concentrations (MICs)
Mobiluncus mulieris = test: Anaerobe inhibition assay; format: cell-based; conditions: 2 strains, read-out: Minimum Inhibitory Concentrations (MICs)
[1] = system: Prevotella melaninogenica; test: Anaerobe inhibition assay; format: cell-based; conditions: 2 strains, read-out: Minimum Inhibitory Concentrations (MICs)
Cytotoxicity assay = format: cell-based; conditions: human, HeLa cells
Procedure: The cells listed in Table 4 were incubated for the indicated period of time with different concentrations of ciclopiroxolamine and cell viability was measured by the 3-(4,5-dimethylthiazol-2-yl)-2,5-diphenyltetrazolium bromide (MTT) assay or by treatment with propidium iodide and fluorescence. Percent viability was calculated with respect to the viability of mock-exposed cells (cells incubated without compounds).
In the MTT assay, the effect of each agent on cell viability was determined using an assay in which dehydrogenases in viable cells cleave the compound 3-(4,5-dimethylthiazol-2-yl)-2,5-diphenyltetrazolium bromide (MTT), yielding a purple product (formazan) which can be measured spectrophotometrically (Pauwels et al., 1988). Cells were seeded into 96 well plates at a density of 3×10^4 cells/well 24 hours prior to introduction of the microbicides. Agents were diluted in as previously indicated. Agents were added to triplicate wells in half-log serial dilutions. […] At the conclusion of each experiment, cells were washed, replenished with fresh medium and incubated with MTT (250 μl/well) for 2 hours at 37° C. […] In this assay, measured absorbance is proportional to the viable cell number, and inversely proportional to the degree of cytotoxicity.

K1 pneumoniae = test: Aerobe inhibition assay; format: cell-based; conditions: 2 strains
Procedure: (§1) The aerobic organisms were suspended into saline to the turbidity of the 0.5 McFarland standard, diluted 1:10, pipetted into the wells of the Steers replicator head, and stamped onto the Mueller Hinton agar plates containing the serial dilutions of the antimicrobials.
(§2) The anaerobes were incubated in an anaerobic chamber at 37° C. for 2 days; aerobes were incubated in ambient air at 36° C. for 20h.

Strep pyogenes = test: Aerobe inhibition assay; format: cell-based; conditions: 2 strains, read-out: Minimum Inhibitory Concentrations (MICs)
Procedure: as §1, §2

Pseudo aerug = test: Aerobe inhibition assay; format: cell-based; conditions: 1 strain, read-out: Minimum Inhibitory Concentrations (MICs)
Procedure: as §1, §2

C. albicans = test: Aerobe inhibition assay; format: cell-based; conditions: Candida albicans; 2 strains; read-out: Minimum Inhibitory Concentrations (MICs)
Procedure: as §1, §2

Listeria monocytogenes = test: Aerobe inhibition assay; format: cell-based; conditions: 2 strains, read-out: Minimum Inhibitory Concentrations (MICs)
Procedure: as §1, §2

Strep agalactiae = test: Aerobe inhibition assay; format: cell-based; conditions: 2 strains
Procedure: as §1, §2

Enterococcus faecalis = test: Aerobe inhibition assay; format: cell-based; conditions: 1 strain, read-out: Minimum Inhibitory Concentrations (MICs)
Procedure: as §1, §2

Enterococcus faecium = test: Aerobe inhibition assay; format: cell-based; conditions: 1 strain, read-out: Minimum Inhibitory Concentrations (MICs)
Procedure: as §1, §2

E. coli = test: Aerobe inhibition assay; format: cell-based; conditions: 2 strains
Procedure: as §1, §2

Pseudo fluorescens = test: Aerobe inhibition assay; format: cell-based; conditions: 1 strain, read-out: Minimum Inhibitory Concentrations (MICs)
Procedure: as §1, §2

Prevotella intermedia = test: Anaerobe inhibition assay; format: cell-based; conditions: 2 strains, read-out: Minimum Inhibitory Concentrations (MICs)
Clost perfringes = test: Anaerobe inhibition assay; format: cell-based, Clostridium perfringes; conditions: Clostridium, 2 strains, read-out: Minimum Inhibitory Concentrations (MICs)
Procedure: Working in an anaerobic chamber, the anaerobes were suspended into brucella broth to the turbidity of the 0.5 McFarland standard and pipetted into the wells of the Steers replicator head, removed from the chamber and stamped onto the supplemented Brucella agar plates containing the serial dilutions of the antimicrobials and the growth control plates. The final inoculum was 10^5 cfu/spot.
as §2

HIV-IRF = test: PC assay (cells pre-treated with compound, washed, then virus); format: cell-based; conditions: Human immunodeficiency virus 1, PM1, read-out: 50% Effective Concentrations (IC50)
Procedure: PC assay: Indicator T cells (PM-1; 10^5/well) were pre-treated with compound for 1 hour at 37° C., compound was removed by washing with 4 volumes of PBS, treated cells were added to immobilized virus (HIV-IRF; 10^3 TCID50) and incubated for 8 days.
In each of the assays above, viral replication was monitored after 8 days by measuring reverse transcriptase activity.

HIV = test: Cell-free inactivation assay; format: cell-based; conditions: virus incubated with product for 2 minutes
Procedure: Cell-free inactivation assay: Virus was incubated with product for 2 minutes, a series of 10-fold dilutions were made, each dilution was added to the host cells and viral infectivity was measured.

C. glabrata = test: Aerobe inhibition assay; format: cell-based, Candida glabrata; conditions: Nakaseomyces glabratus; 3 strains; read-out: Minimum Inhibitory Concentrations (MICs)
Procedure: as §1, §2

Prevotella bivia = test: Anaerobe inhibition assay; format: cell-based; conditions: 2 strains, read-out: Minimum Inhibitory Concentrations (MICs)
Fuso. nucleatum = test: Anaerobe inhibition assay; format: cell-based; conditions: Fusobacterium nucleatum, 2 strains, read-out: Minimum Inhibitory Concentrations (MICs)
Peptrostrep. magnus = test: Anaerobe inhibition assay; format: cell-based; conditions: 2 strains, read-out: Minimum Inhibitory Concentrations (MICs)
[2] = system: Peptostrep asaccharolyticus; test: Anaerobe inhibition assay; format: cell-based; conditions: 2 strains
[3] = system: N. gonorrheae, strain ms11a; test: Neisseria gonorrhea inhibition assay; format: cell-based; conditions: gonococcal agar, overnight, colonies counted
Procedure: Compound was incorporated into gonococcal agar, the agar/agent mixture was poured on culture dishes and inoculated with N. gonorrheae, strain ms11a (10 μl of each dilution: 10^−1 to 10^−5 of a starting 0.5 Mcfarland solution which is equal to 1.5×10^8 colony forming units (cfu)/ml). The plates were incubated overnight (20-22 hours) and the colonies counted.

[4] = read-out: Minimum Inhibitory Concentrations (MICs)

Cc1cc(C2CCCCC2)n(O)c(=O)c1.NCCO [CO, 6-Cyclohexyl-1-hydroxy-4-methyl-2-(1H)-pyridone ethanolamine salt]
MIC (Peptostrep tetradius): 40 µg/mL | MIC (Mobiluncus mulieris): 40 µg/mL | MIC [1]: 40 µg/mL | CC50 at 1 h (Cytotoxicity assay; Series 1, Original material, 1 hour incubation, 100 μg/ml highest conc tested): > 100 µg/mL | CC50 at 1 h (Cytotoxicity assay; Series 3, 1 hour incubation): 859 µg/mL | Minimum Inhibitory Concentrations (MICs) (K1 pneumoniae): 80 µg/mL | MIC (K1 pneumoniae; [4]): 40 µg/mL | MIC (Strep pyogenes): 80 µg/mL | MIC (Pseudo aerug): 80 µg/mL | MIC (C. albicans): 20 µg/mL | MIC (Listeria monocytogenes): 40 µg/mL | Minimum Inhibitory Concentrations (MICs) (Strep agalactiae): 160 µg/mL | MIC (Strep agalactiae; [4]): 80 µg/mL | MIC (Enterococcus faecalis): 80 µg/mL | MIC (Enterococcus faecium): 40 µg/mL | Minimum Inhibitory Concentrations (MICs) (E. coli): 80 µg/mL | MIC (E. coli; Escherichia coli, read-out: Minimum Inhibitory Concentrations (MICs)): 40 µg/mL | MIC (Pseudo fluorescens): 160 µg/mL | MIC (Prevotella intermedia): 40 µg/mL | MIC (Clost perfringes): 40 µg/mL | IC50 (HIV-IRF): 0.96 µg/mL | log reduction (viral infectivity) (HIV; At 0.09%): At 0.09%: ≧2.0 log | log reduction (viral infectivity) (HIV; At 0.3%): At 0.3%: ≧2.7 log | MIC (C. glabrata): 20 µg/mL | MIC (Prevotella bivia): 40 µg/mL | MIC (Fuso. nucleatum): 40 µg/mL | MIC (Peptrostrep. magnus): 40 µg/mL | Minimum Inhibitory Concentrations (MICs) [2]: 80 µg/mL | MIC [2, 4]: 40 µg/mL | IC50 [3]: 1 µg/mL
